Results published in paper PMC11311998, “AR71, Histamine H3 Receptor Ligand—In Vitro and In Vivo Evaluation (Anti-Inflammatory Activity, Metabolic Stability, Toxicity, and Analgesic Action)” (International Journal of Molecular Sciences, 2024).

Key:
[1] = tested on: SH-SY5Y cells; test: cell number / growth, image cytometry; format: cell-based; conditions: Homo sapiens
Procedure: To evaluate the growth dynamics of SH-SY5Y cells in the presence of AR71, neuroblastoma cells were treated with increasing concentrations (0.39–25 µM) of the compound tested for 24 or 72 h. Using image cytometry, we calculated the DNA content index as a 2N/4N DNA ratio to analyse the cell cycle distribution after 24 and 72 h of incubation with AR71.
SH-SY5Y cells were initially seeded in 96-well plates at a density of 5000 cells per well in 120 μL of medium. After 24 h, the cells were exposed to different concentrations of AR71 for either 24 or 72 h. […] Subsequently, images of 16 fields per well were captured using the ArrayScan VTI HCS Reader from Thermo Fisher Scientific, Inc. (Thermo Fisher Scientific, Waltham, MA, USA), which was equipped with a 5× objective. The cell number was calculated as the sum of the Hoechst-33342-stained cell nuclei using Cell Cycle Bioapplication V3 software and expressed as a per cent of control. […] In the next step, a series of detailed images were acquired using the ArrayScan VTI HCS Reader equipped with a 10× objective to collect at least 500 nuclei/cells per replicate. The DNA cell content of single cells was analysed based on Hoechst-33342 fluorescence intensity of their nuclei using Cell Cycle Bioapplication V3 software and presented as the DNA 2N/4N ratio. […]

[2] = tested on: SH-SY5Y cells; test: viability of neuroblastoma cells (MTS assay); format: cell-based, human
Procedure: The toxicity of AR71 in neuroblastoma cells was evaluated with the 3-(4,5-dimethylthiazol-2-yl)-5-(3-carboxymethoxyphenyl)-2-(4-sulfophenyl)-2H-tetrazolium (MTS) assay. The cells were cultured with AR71 at various concentrations ranging from nanomolar to micromolar for 24 h.
SH-SY5Y cells (the human neuroblastoma cell line) were purchased from the American Type Culture Collection (ATCC® no. CRL-2266™; Manassas, VA, USA). The cells were grown in a complete culture medium containing DMEM/F-12 medium (Gibco no. A41920-01) supplemented with 10% foetal bovine serum (FBS, Gibco no. 10500-064), non-essential amino acids (Biowest, Nuaillé, France), and antibiotics (Life Technologies) in a humidified incubator containing 95% air and 5% CO2 at 37 °C. Experiments were performed with SH-SY5Y cells from passage (15 up to 25—W.W.).
Neurotoxicity evaluation was performed with the SH-SY5Y cell line. The cells were seeded (5 × 10^3 cells/100 μL/well) in transparent 96-well plates (Corning Falcon, no. 353072, Merck KGaA, Darmstadt, Germany), in a complete culture medium and cultured overnight. The next day, the medium was removed and replaced with a fresh one containing 0.1% DMSO (vehicle control, Veh) or increasing concentration of the AR71 compound (the concentrations studied covered the range of nanomolar and micromolar concentrations). Treatment with the compounds was performed for 24 h. At the end of the incubation time, the cells were examined under an inverted microscope to rule out possible precipitation of the compound in the culture medium. Cell viability was examined using an MTS-based CellTiter96® AQueous One Solution Cell Proliferation Assay (Promega, Madison, WI, USA) following the manufacturer’s protocol. Briefly, 20 μL of MTS solution was pipetted directly into each well containing 100 μL of culture medium with or without cells (blank) and incubated at 37 °C for 1 h. The absorbance was measured at 490 nm using the Tecan Spark multimode plate reader (Tecan, Männedorf, Switzerland). A reference wavelength of 630 nm was used to subtract the background. The viability of individual samples was calculated relative to the vehicle-treated cells (0.1% DMSO). The results are presented as means with SEMs of two independent experiments, each comprising four replicates per treatment group. Data from the MTS assay were used to determine the IC50 value. It was calculated by fitting a nonlinear regression to a sigmoidal dose–response curve in GraphPad Prism version 8.0.1 (GraphPad Software, Inc., San Diego, CA, USA).

[3] = tested on: SH-SY5Y cells; format: cell-based, human; conditions: without rotenone
Procedure: To test neuroprotective activity, SH-SY5Y cells were pre-treated for 1 h with various concentrations of AR71, after which rotenone (6.25 μM) was added and the cells were cultured for another 24 h. […] Co-treatment with AR71 protected cells from the toxic effect of rotenone, resulting in LDH leakage ranging from 10 to 22% only.
The protective effect of AR71 against rotenone-induced toxicity in SH-SY5Y cells was assessed by measuring LDH release. SH-SY5Y cells (6 × 10^3 cells/100 μL/well) were seeded in black 96-well plates Nunclon^TM Delta Surface no. 137101 (ThermoFischer Scientific, Waltham, MA, USA) and cultured overnight. The next day, the medium was removed and replaced with a fresh one with an increasing concentration of AR71 (0.0975–50 μM). After 1 h of compound pre-treatment, the neurotoxin rotenone (6.25 μM) was added, and the cells were cultured for another 24 h. For the negative and positive controls, cells were treated with 0.1% DMSO and 6.25 μM of rotenone alone, respectively. The cells treated with the compound alone were used to compare the effect with those co-treated with rotenone. After 24 h, the level of LDH leakage was measured by the CytoTox-ONE™ Homogeneous Membrane Integrity Assay (Promega, Madison, WI, USA) following the manufacturer’s protocol. Briefly, 100 μL of CytoTox-ONE™ reagent (Promega, Madison, WI, USA) was added to each well, and the cells were incubated for 10 min at room temperature protected from light. The fluorescence was measured using the multimode plate reader Tecan Spark (Tecan, Männedorf, Switzerland) with an excitation wavelength of 560 nm and an emission wavelength of 590 nm.

COc1cc(/C=C/C(=O)c2ccc(OCCCN3CCCCC3)cc2)cc(OC)c1OC [AR71, (E)-3-(3,4,5-trimethoxyphenyl)-1-(4-(3-(piperidin-1-yl)propoxy)phenyl)prop-2-en-1-one] was tested. Which IC50 ([1]; 24 h incubation) did it give?
The IC50 was 8.46 µM.

What about the IC50 ([1]; 72 h incubation) of the same molecule?
Its IC50 is 3.19 µM.

What about the “loss in neuroblastoma viability vs control cells” value ([2]; 50 μM, 24 h) of the same molecule?
The value was 73%.

And the “concentration from which cell metabolic activity decreased significantly (p < 0.001)” value ([2]; 24 h)?
The value was at least 4.17 µM.

What about the IC50 ([2]; Homo sapiens, SH-SY5Y, 24 h incubation) of the same molecule?
Its IC50 is 24.9 µM.

What about the “effect on cell viability” value ([2]; concentrations up to 0.72 μM, 24 h) of the same molecule?
The value was “did not affect cell viability”.

And the “LDH leakage compared with control cells” value ([3]; 50 μM)?
The value was about 60%.

What about the “effect on cell membrane integrity (LDH)” value ([3]; 0.0975–25 μM) of the same molecule?
Its value is “did not disturb the cell membrane”.
